Laboratory results from EP1114060B1, “PROCESS FOR PRODUCING PEPTIDES FROM BIOLOGICAL FLUIDS AND PEPTIDES […] SAID PROCESS” (NIZO food research, priority 1998, dated 2003).
Bridges are numbered along the chain shown (N, C = ends). Where no end group is shown, it is not given here. [ ]: non-standard residue; d: D form. Dhb = C/C=C(\N)C(=O)O; Dha = C=C(N)C(=O)O

Test system: Micrococcus flavus DSM 1790
Experiment: plate diffusion assay for antibacterial activity
Format: cell-based
Conditions: fraction desorbed with 1 M KCI in phosphate buffer, pH 7.0
Description: Antibacterial activities of the peptide mixtures and/or isolated peptides were determined by a plate diffusion assay using Micrococcus flavus DSM 1790 as indicator organism. M. flavus was grown in MF broth (0.1% sucrose, 1% peptone, 0.3% meat extract, 0.2% NaCI, 0.15% yeast extract pH 7.0). Peptide mixtures were tested at concentrations from 0.2 mg/ml to 50 mg/ml in bidistilled water.

## nisin A (I[Dhb]SI[Dha]LCTPGCKTGALMGCNMKTATCHCSIHV[Dha]K; bridge 23-26, 13-19, 8-11, 25-28, 3-7; not fully specified (bridges); UniProt P13068 24-57, looked up) [lantibiotic]
  activity against Micrococcus flavus: showed activity
